Laboratory results from patent publication US7772001B2, “Directed differentiation of embryonic stem cells into an endoderm cell” (Yissum Research Development Company Of the Hebrew …, priority 2000, dated 2010).

Legend:
Type in all cases: cell-based
human EBs = assay: NF-H immunostaining of plated EBs, neuronal network complexity; conditions: RA treatment and plating on collagen; untreated EBs 54%
Procedure: (§1) In Situ Hybridization and Immunohistochemistry: EBs or their plated derivatives were fixed in 4% paraformaldehyde. In in-situ experiments, hybridization to a 50-mer 2′-O-methyl 5′-biotinylated cDNA of NF-L (SEQ ID NO:1) (CCTGCGTGCGGATGGAC […]) followed. The probes were then detected with streptavidin-conjugated alkaline phosphatase using a fluorogenic substrate (Grifman et al, 1998). For immunohistochemistry, EBs were either embedded in paraffin and sectioned at 10 μM, or stained directly on the plates. Mouse monoclonal anti-NF-II was used as a primary antibody, and was detected with Cy3-conjugated goat anti-mouse igG.
(§2) Cell Culture. Human ES cells were grown and EBs were generated as described in Example 1. Four days following initiation of aggregation growth factors were administered: retinoic acid (Sigma): 10-^7 M (Bain et al, 1995) or 10^−6 (Bain et al, 1996); TGFβ1 (Sigma): 2 ng/ml (Slager et al, 1993); βNGF (New Biotechnology, Israel): 100 ng/ml (Wobus et al, 1988). After 21 days, EBs were plated on 5 μm/cm^2 collagen treated plates, either as whole EB's, or as single cells dissociated with trypsin/EDTA. The cultures were maintained for an additional week or 2 days, respectively.
In situ hybridization and immunohistochemistry was carried out according to Example 1. […]

[1] = system: human EBs (from human ES cells); assay: In situ hybridization to NF-L RNA in cells derived from dissociated EBs; conditions: for proportion of neuronal cells in the cultures (NF-L RNA): controls 21%
Procedure: as §1, §2
In situ hybridization and immunohistochemistry was carried out according to Example 1. RT-PCR analysis. cDNA was synthesized from total RNA and PCR performed according to Example I. Primers for GAPDH, serotonin receptors 2A and 5A (5HT2A7 5HT5A, respectively) and dopamine receptor D1 (DRD1) were purchased from Clontech. The primers for dopa decarboxylase (DDC) were: […] (SEQ ID NO:2) and […] (SEQ ID NO:3).
Differentiation was initially assayed by in-situ hybridization to neurofilament light chain (NF-L) RNA, which is expressed by both immature and fully differentiated neurons (Carden et al, 1987).

[2] = system: human differentiated embryonic (DE) cells; assay: RT-PCR of cell specific genes in DE cells treated with growth factors; conditions: for set of cell specific transcripts produced / expression of uro-genital marker WT-1: DE cells, 10 days with factor; for overall induction or repression of cell specific expression (FIG. 3B): at least three experiments; for blood formation / differentiation into Mullerian duct cells / differentiation into chondrocytes / differentiation into ectodermal cells / differentiation into endodermal cells / differentiation into kidney cells / differentiation into mesodermal cells / differentiation into skin cells / differentiation of brain cells (neurons) / differentiation of heart cells / differentiation of muscle / differentiation toward liver (hepatocytes) / differentiation toward pancreas (islet cells): vs control without growth factor (FIG. 4)
Procedure: (§3) Cell Culture: Human embryonic stem cells were grown on a feeder layer of mouse embryonic fibroblasts (MEF) and then transferred to gelatin coated plates and cultured further to reduce the number of murine cells in the culture. Differentiation into embryoid bodies (EBs) was initiated by transfer to Petri dishes, where the embryoid bodies remained in suspension. After 5 days, the EBs become dissociated and cells are cultured as a monolayer forming differentiated embryonic (DE) cells. This protocol allows for initial differentiation of the human embryonic stem cells as aggregates and further differentiation as a monolayer wherein cells can be exposed to exogenous growth factors. The DE cells were cultured for 10 days in the presence of 8 different growth factors: NGF, bFGF, Activin-A, TGFβ1, HGF, EGF, BMP4 and retinoic acid (RA) (FIG. 1A).
To induce formation of EBs, ES cells were transferred using trypsin/EDTA (0.1%/l mM) to plastic Petri dishes to allow their aggregation and prevent adherence to the plate. Human EBs were grown in the same culture medium, except that it lacked leukemia inhibitory factor (LIF) and bFGF. The EBs were cultured for 5 days and then dissociated and plated on tissue culture plates coated with 50 μg/ml Fibronectin (Boehringer Mannheim). The cells were grown in the presence of the following human recombinant growth factors used singly or in groups: Basic Fibroblast Growth Factor (bFGF) (Swoboda et al, 1999)—10 ng/ml (Gibco BRL); Transforming Growth Factor Beta 1 (TGFβ1) (Swoboda et al, 1999)—2 ng/ml (R&D Systems); Activin-A (Slager et al, 1993)—20 ng/ml (R&D Systems); Bone Morphogenic Protein 4 (BMP-4) (Slager et al, 1993; Bain et al, 1996)—10 ng/ml (R&D Systems); Hepatocyte Growth Factor (HGF)/Scatter Factor (Doetsch et al, 1999)—20 ng/ml (R&D Systems); Epidermal Growth Factor (EGF) (Doetsch et al, 1999)—100 ng/ml (R&D Systems); βNerve Growth Factor (NGF) (Johansson et al, 1999)—100 ng/ml (R&D Systems); Retinoic acid (RA) (Deacon et al, 1998; Peschanski et al, 1995)—1 μM (Sigma). Under these conditions the differentiated embryonic (DE) cells were grown for another 10 days. All of the examined growth factors are absent from the KnockOut™ serum replacement in which the embryonic cells were cultured.
RT-PCR Analysis: Total RNA was extracted using Atlas™ Pure Total RNA Kit (Clontech). cDNA was synthesized from 1 μg total RNA, using Atlas™ RT-for-PCR Kit (Clontech). cDNA samples were subjected to PCR amplification with DNA primers selective for the human genes. For each gene, the DNA primers were derived from different exons to ensure that the PCR product represents the specific mRNA species and not genomic DNA. PCR was performed using the Clontech Advantaq+™ RT-PCR kit and using a two-step cycle at 68° C.
Primers were synthesized for the following genes: neurofilament heavy chain (NF-H), phosphoprotein enriched in astrocytes (PEA-15), Keratin, Dopamine β Hydroxylase (DβH), Follicular Stimulating Hormone (FSH), Enolase, Myosin light polypeptide2 (myosin), Cartilage Matrix Protein (CMP), Renin, Kallikrein, Wilms Tumor 1 (WTI), β-Globin (β-Glob), δ-Globin (δ-Glob), Cardiac Actin (cACT), Albumin, α1 anti-trypsin (α1 AT), Lipase, Amylase, PDX-1, Insulin, Glucagon, Surfactant, Parathyroid Hormone (PTH), α-feto protein (αFP), Retinoic Acid Receptor type alpha (RAR), Hepatocyte Growth Factor Receptor (c-Met), Nerve Growth Factor Receptor (NGFR), Fibroblast Growth Factor Receptor type I (FGFRI), Transforming Growth Factor Receptor type II (TGFRII), Epidermal Growth Factor Receptor type (EGFR), Activin Receptor type IIB (ACTRIIB), Bone Morphogenic Protein 4 Receptor type II (BMP4RII), Octamer Binding Protein 4 (Oct 4), Glyceraldehyde 3-phosphate dehydrogenase (G3PD), β-Actin. Also incorporated by reference, see http://www.ls.huji.ac.il/˜nissimb/factors_es/primers.html-ente.
The differentiation induced by growth factors was further examined by determining the expression of a panel of 24 cell specific genes using RT-PCR. […]

[3] = system: human differentiated embryonic (DE) cells; assay: Morphology of DE cells cultured with growth factors; conditions: several days on plastic, continuous exposure to growth factor (FIG. 1B)
Procedure: as §3
To induce formation of EBs, ES cells were transferred using trypsin/EDTA (0.1%/l mM) to plastic Petri dishes to allow their aggregation and prevent adherence to the plate. Human EBs were grown in the same culture medium, except that it lacked leukemia inhibitory factor (LIF) and bFGF. The EBs were cultured for 5 days and then dissociated and plated on tissue culture plates coated with 50 μg/ml Fibronectin (Boehringer Mannheim). […]

Compound	set of cell specific transcripts produced [2]	overall induction or repression of cell specific expression (FIG. 3B) [2]	blood formation [2]	differentiation into Mullerian duct cells [2]	differentiation into chondrocytes [2]	differentiation into ectodermal cells [2]	differentiation into endodermal cells [2]	differentiation into kidney cells [2]	differentiation into mesodermal cells [2]	expression of uro-genital marker WT-1 [2]	differentiation into skin cells [2]	differentiation of brain cells (neurons) [2]	differentiation of heart cells [2]	differentiation of muscle [2]	differentiation toward liver (hepatocytes) [2]	differentiation toward pancreas (islet cells) [2]	cell morphology found in treated culture [3]	other results
CC1=C(/C=C/C(C)=C/C=C/C(C)=C/C(=O)O)C(C)(C)CCC1 [RA, retinoic acid, reference compound]	–	–	–	–	–	–	–	–	–	–	–	–	–	–	–	–	–	number of EBs containing NF-H positive neurons (human EBs): 76%; proportion of neuronal cells in the cultures (NF-L RNA) ([1]; high concentration of RA (10^−6 M)): 52%
TGFβ1: human recombinant Transforming Growth Factor Beta 1, 2 ng/ml	relatively reduced set of specific transcripts	mostly repress or fail to direct differentiation of as many cell types	inhibit	inhibit	inhibit	inhibit	inhibit	inhibit	allow differentiation into selected mesodermal cells	–	–	–	–	–	–	–	–	effect on neuronal differentiation (NF-L RNA) ([1]; TGFβ1 2 ng/ml): no effect
NGF: human recombinant β nerve growth factor, 100 ng/ml	induce expression of a variety of transcripts indicative of cells from all three germ layers	induces the greatest variety of cell specific gene expression	stimulate	direct the differentiation	down-regulate	allows	allows	direct the differentiation	allows	expressed	completely inhibited	direct the differentiation	stimulate	down-regulate	direct the differentiation	direct the differentiation	–	expression of adrenal markers [2]: not; expression of endodermal markers [2]: induce; number of neuronal cells that develop from human embryonic cells ([1]; summary statement): enhance; proportion of neuronal cells in the cultures (NF-L RNA) ([1]; βNGF 100 ng/ml): 39%
bFGF: human recombinant Basic Fibroblast Growth Factor, 10 ng/ml	–	–	–	–	–	allow or induce	–	inhibits	allow or induce	–	permits formation of normal levels	permits formation of normal levels	stimulates	permits formation of normal levels	–	–	fibroblast like cells	–
EGF: human recombinant Epidermal Growth Factor, 100 ng/ml (NSDSECPLSHDGYCLHDGVCMYIEALDKYACNCVVGYIGERCQYRDLKWWELR; UniProt P01133 971-1023, looked up)	–	–	inhibits	–	–	allow or induce	–	inhibits	allow or induce	–	stimulate	inhibits	stimulate	permits normal levels	–	–	–	–
HGF: human recombinant Hepatocyte Growth Factor/Scatter Factor, 20 ng/ml	–	–	significant inhibition	–	significant inhibition	allows	allows	completely inhibited	allows	expressed	induced at their normal level	significant inhibition	–	–	significant inhibition	significant inhibition	large populations of small cells with pronounced nuclei	–
